Where two headings read alike, the source gives them in different places.
Columns and labels:
[1] = tested on: PBMCs from control and HIV-1 infected chimpanzees; type: cell-based, chimpanzee
[2] = tested on: PBMCs from normal and HIV-positive individuals; type: cell-based, human
[3] = tested on: anti-peptide antibodies in serum; type: binding, human; parameters: key to Anti-peptide antibody response: +, Positive (titer above control); −, Negative (titer below control)
[4] = tested on: anti-peptide antibodies in serum; type: binding, chimpanzee; parameters: key: +, Positive (Titer > 1:100); −, Negative (Titer < 1:100)

With “phytohemagglutinin [PHA, reference compound]” the proliferation ([1]; all nine HIV-infected chimpanzees) was “high levels of proliferation”, the “cpm values, proliferation” value ([1]; two control uninfected chimpanzees) was 15832-20504 cpm and the “SI values, proliferation” value ([2]; HIV+ individuals) was 20.3-23.3. The “cpm values, proliferation” value ([2]; HIV+ individuals) was 108361-127640 cpm and the “SI values, proliferation” value ([2]; normal subjects) was 131-183.
With FLGFLGAAGSTMGAASLTLTVQARQ [Peptide 121] the “number of HIV+ individuals with positive antibody titers (<1:1280)” value [3] was “one”, the Anti-peptide antibody response ([3]; HIV-positive patient MSf) was “−” and the Anti-peptide antibody response ([3]; HIV-positive patient MSm) was “−”. The Anti-peptide antibody response ([3]; HIV-positive patient eight) was “−”, the Anti-peptide antibody response ([3]; HIV-positive patient eleven) was “−” and the Anti-peptide antibody response ([3]; HIV-positive patient fifteen) was “−”. For the same substance, the Anti-peptide antibody response ([3]; HIV-positive patient five) was “−”, the Anti-peptide antibody response ([3]; HIV-positive patient four) was “−” and the Anti-peptide antibody response ([3]; HIV-positive patient fourteen) was “−”. For the same substance, the Anti-peptide antibody response ([3]; HIV-positive patient nine) was “+”, the Anti-peptide antibody response ([3]; HIV-positive patient one) was “−” and the Anti-peptide antibody response ([3]; HIV-positive patient seven) was “−”. For the same substance, the Anti-peptide antibody response ([3]; HIV-positive patient six) was “−”, the Anti-peptide antibody response ([3]; HIV-positive patient ten) was “−” and the Anti-peptide antibody response ([3]; HIV-positive patient thirteen) was “−”. For the same substance, the Anti-peptide antibody response ([3]; HIV-positive patient three) was “−”, the Anti-peptide antibody response ([3]; HIV-positive patient twelve) was “−” and the Anti-peptide antibody response ([3]; HIV-positive patient two) was “−”. For the same substance, the Anti-peptide antibody response ([3]; Normal-1 (HIV-seronegative)) was “−”, the Anti-peptide antibody response ([3]; Normal-2 (HIV-seronegative)) was “−” and the Anti-peptide antibody response [4] was “−”. For the same substance, the Anti-peptide antibody response ([4]; chimpanzee 40, control normal) was “−”, the Anti-peptide antibody response ([4]; chimpanzee 73, control normal) was “−” and the T-cell proliferative response ([1]; chimpanzee 40, control normal) was “− (−, Negative (SI < 2.0))”. For the same substance, the T-cell proliferative response ([1]; chimpanzee 62, HIV-infected) was “+ (+, Positive (Stimulation Index [SI] > 2.0))”, the T-cell proliferative response ([1]; chimpanzee 69, HIV-infected) was “+ (+, Positive (Stimulation Index [SI] > 2.0))” and the T-cell proliferative response ([1]; chimpanzee 73, control normal) was “− (−, Negative (SI < 2.0))”. For the same substance, the T-cell proliferative response ([1]; chimpanzee 80, HIV-infected) was “+ (+, Positive (Stimulation Index [SI] > 2.0))”, the T-cell proliferative response ([1]; chimpanzee 99, HIV-infected) was “− (−, Negative (SI < 2.0))” and the T-cell proliferative response ([1]; chimpanzee 100, HIV-infected) was “+ (+, Positive (Stimulation Index [SI] > 2.0))”. For the same substance, the T-cell proliferative response ([1]; chimpanzee 139, HIV-infected) was “− (−, Negative (SI < 2.0))”, the T-cell proliferative response ([1]; chimpanzee 175, HIV-infected) was “+ (+, Positive (Stimulation Index [SI] > 2.0))” and the T-cell proliferative response ([1]; chimpanzee 247, HIV-infected) was “− (−, Negative (SI < 2.0))”. The T-cell proliferative response ([1]; chimpanzee 310, HIV-infected) was “− (−, Negative (SI < 2.0))”, the “number of HIV-infected chimpanzees with positive proliferative responses (SI>2.0)” value ([1]; nine HIV-infected chimpanzees tested) was “five” and the “number of HIV+ individuals with positive proliferative responses” value ([2]; 17 HIV+ individuals tested) was “five”. The T-cell proliferative response ([2]; HIV-positive patient MSf) was “− (−, Negative (SI < 2.0))”, the T-cell proliferative response ([2]; HIV-positive patient MSm) was “− (−, Negative (SI < 2.0))” and the T-cell proliferative response ([2]; HIV-positive patient eight) was “− (−, Negative (SI < 2.0))”. For the same substance, the T-cell proliferative response ([2]; HIV-positive patient eleven) was “− (−, Negative (SI < 2.0))”, the T-cell proliferative response ([2]; HIV-positive patient fifteen) was “+ (+, Positive (Stimulation Index [SI] > 2.0))” and the T-cell proliferative response ([2]; HIV-positive patient five) was “− (−, Negative (SI < 2.0))”. The T-cell proliferative response ([2]; HIV-positive patient four) was “− (−, Negative (SI < 2.0))”, the T-cell proliferative response ([2]; HIV-positive patient fourteen) was “+ (+, Positive (Stimulation Index [SI] > 2.0))” and the T-cell proliferative response ([2]; HIV-positive patient nine) was “− (−, Negative (SI < 2.0))”. For the same substance, the T-cell proliferative response ([2]; HIV-positive patient one) was “− (−, Negative (SI < 2.0))”, the T-cell proliferative response ([2]; HIV-positive patient seven) was “− (−, Negative (SI < 2.0))” and the T-cell proliferative response ([2]; HIV-positive patient six) was “+ (+, Positive (Stimulation Index [SI] > 2.0))”. The T-cell proliferative response ([2]; HIV-positive patient ten) was “+ (+, Positive (Stimulation Index [SI] > 2.0))”, the T-cell proliferative response ([2]; HIV-positive patient thirteen) was “− (−, Negative (SI < 2.0))” and the T-cell proliferative response ([2]; HIV-positive patient three) was “+ (+, Positive (Stimulation Index [SI] > 2.0))”. For the same substance, the T-cell proliferative response ([2]; HIV-positive patient twelve) was “− (−, Negative (SI < 2.0))”, the T-cell proliferative response ([2]; HIV-positive patient two) was “− (−, Negative (SI < 2.0))” and the T-cell proliferative response ([2]; Normal-1 (HIV-seronegative)) was “− (−, Negative (SI < 2.0))”. The T-cell proliferative response ([2]; Normal-2 (HIV-seronegative)) was “− (−, Negative (SI < 2.0))”.

Reference: US7306804B2 (priority 1998, dated 2007)
